Measurements: paper PMC9454848, “BMS-986158, a Small Molecule Inhibitor of the Bromodomain and Extraterminal Domain Proteins, in Patients with Selected Advanced Solid Tumors: Results from a Phase 1/2a Trial” (Cancers, 2022)
Entries after “also recorded” stand apart in the source; their conditions may differ. Read-outs that look alike come from different tables or passages of the source.

Legend:
[1] = test system: patients with advanced solid tumors; assay: ECG ΔQTcF exposure-response at single dose; format: in vivo
Procedure: Triplicate ECG measures were used to assess changes from baseline in the QT interval adjusted for heart rate using Fridericia’s formula (ΔQTcF) following a single dose of BMS-986158 at C1D1. ΔQTcF was evaluated in the context of exposure response for BMS-986158 and its metabolite of interest.
(§1) All treated patients who received ≥1 dose of BMS-986158 were evaluated in the safety population. […] All treated patients with available and sufficient serum or plasma samples for the corresponding analytes were included in the PK analyses. […] ECG parameters were evaluated in a categorical analysis, and linear mixed-effects regression modeling was used to describe the quantitative relationship between ΔQTcF and time-matched serum concentrations of BMS-986158 or its metabolite at a single dose.

[2] = Plasma pharmacokinetics after multiple doses (cycle 2, steady state), LC-MS/MS; format: in vivo, human; conditions: for AUC(0-t) / half-life / Tmax / Cmax: human, plasma, oral
Procedure: At C1D1 in every dosing schedule cohort, a single dose was administered followed by 168 h (i.e., 7 days) of intensive PK sampling. Following cycle 1, the multiple-dose treatment schedules (described above) began in cycle 2. PK parameters were derived following single dose combined across all schedules and multiple doses at cycle 2 for each schedule. […] PK assessments were evaluated for BMS-986158 and its metabolite using plasma samples at regular intervals. Both the parent and metabolite samples were simultaneously analyzed using a validated liquid chromatography and tandem mass spectrometry assay.
as §1

SMILES: Cc1nnn(C)c1-c1cnc2c3ccc(C(C)(C)O)cc3n([C@H](c3ccccc3)C3CCOCC3)c2c1 [BMS-986158]
- Effect on ΔQTcF ([1]; single dose of BMS-986158): neither BMS-986158 nor its metabolite had a statistically significant effect; also recorded: not found to cause significant QTc prolongation
- Predicted increase in ΔQTcF at highest observed Cmax ([1]; single dose, linear mixed-effects model): < 5 ms
- CL/F at steady state, geometric mean, range across doses ([2]; Schedule A): 4.60 to 5.41 mL/min
- CL/F at steady state, geometric mean, range across doses ([2]; Schedule B): 3.76 to 9.72 mL/min
- CL/F at steady state, geometric mean, range across doses ([2]; Schedule C): 3.89 to 6.65 mL/min
- AUC(0-t) ([2]; 0.75 mg, multiple dose, steady state, Schedule A (5 days on, 2 days off), 0.75 mg, n = 3, read-out: AUC(0–24), GM (%CV)): 2720 ng·h/mL
- half-life ([2]; 0.75 mg, multiple dose, steady state, Schedule A (5 days on, 2 days off), 0.75 mg, n = 3, read-out: Effective T1/2, mean (SD) (converted)): 36 h
- AUC(0-t) ([2]; 0.75 mg, multiple dose, steady state, Schedule A (5 days on, 2 days off), 0.75 mg, n = 4, read-out: AUC(0–T), GM (%CV)): 3450 ng·h/mL
- Tmax ([2]; 0.75 mg, multiple dose, steady state, Schedule A (5 days on, 2 days off), 0.75 mg, n = 4, read-out: Tmax, median (range)): 3.14 h
- Cmax ([2]; 0.75 mg, multiple dose, steady state, Schedule A (5 days on, 2 days off), n = 4): 136 ng/mL
- AUC(0-t) ([2]; 1.25 mg, multiple dose, steady state, Schedule A (5 days on, 2 days off), 1.25 mg, n = 1, read-out: AUC(0–24), GM (%CV)): 3850 ng·h/mL
- AUC(0-t) ([2]; 1.25 mg, multiple dose, steady state, Schedule A (5 days on, 2 days off), 1.25 mg, n = 4, read-out: AUC(0–T), GM (%CV)): 4960 ng·h/mL
- Tmax ([2]; 1.25 mg, multiple dose, steady state, Schedule A (5 days on, 2 days off), 1.25 mg, n = 4, read-out: Tmax, median (range)): 1.5 h
- Cmax ([2]; 1.25 mg, multiple dose, steady state, Schedule A (5 days on, 2 days off), n = 4): 284 ng/mL
- AUC(0-t) ([2]; 2 mg, multiple dose, steady state, Schedule A (5 days on, 2 days off), 2.0 mg, n = 7, read-out: AUC(0–T), GM (%CV)): 7610 ng·h/mL
- Tmax ([2]; 2 mg, multiple dose, steady state, Schedule A (5 days on, 2 days off), 2.0 mg, n = 7, read-out: Tmax, median (range)): 2 h
- Cmax ([2]; 2 mg, multiple dose, steady state, Schedule A (5 days on, 2 days off), n = 7): 442 ng/mL
- AUC(0-t) ([2]; 2 mg, multiple dose, steady state, Schedule B (14 days on, 7 days off), 2.0 mg, n = 1, read-out: AUC(0–24), GM (%CV)): 3430 ng·h/mL
- AUC(0-t) ([2]; 2 mg, multiple dose, steady state, Schedule B (14 days on, 7 days off), 2.0 mg, n = 1, read-out: AUC(0–T), GM (%CV)): 6320 ng·h/mL
- half-life ([2]; 2 mg, multiple dose, steady state, Schedule B (14 days on, 7 days off), 2.0 mg, n = 1, read-out: Effective T1/2, mean (SD) (converted)): 14.4 h
- Tmax ([2]; 2 mg, multiple dose, steady state, Schedule B (14 days on, 7 days off), 2.0 mg, n = 1, read-out: Tmax, median (range)): 1 h
- Cmax ([2]; 2 mg, multiple dose, steady state, Schedule B (14 days on, 7 days off), n = 1): 279 ng/mL
- AUC(0-t) ([2]; 2 mg, multiple dose, steady state, Schedule C (7 days on, 14 days off), 2.0 mg, n = 5, read-out: AUC(0–24), GM (%CV)): 8560 ng·h/mL
- AUC(0-t) ([2]; 2 mg, multiple dose, steady state, Schedule C (7 days on, 14 days off), 2.0 mg, n = 5, read-out: AUC(0–T), GM (%CV)): 19900 ng·h/mL
- half-life ([2]; 2 mg, multiple dose, steady state, Schedule C (7 days on, 14 days off), 2.0 mg, n = 5, read-out: Effective T1/2, mean (SD) (converted)): 31.6 h
- Tmax ([2]; 2 mg, multiple dose, steady state, Schedule C (7 days on, 14 days off), 2.0 mg, n = 5, read-out: Tmax, median (range)): 1 h
- Cmax ([2]; 2 mg, multiple dose, steady state, Schedule C (7 days on, 14 days off), n = 5): 520 ng/mL
- AUC(0-t) ([2]; 3 mg, multiple dose, steady state, Schedule A (5 days on, 2 days off), 3.0 mg, n = 7, read-out: AUC(0–24), GM (%CV)): 9820 ng·h/mL
- half-life ([2]; 3 mg, multiple dose, steady state, Schedule A (5 days on, 2 days off), 3.0 mg, n = 7, read-out: Effective T1/2, mean (SD) (converted)): 25.7 h
- AUC(0-t) ([2]; 3 mg, multiple dose, steady state, Schedule A (5 days on, 2 days off), 3.0 mg, n = 8, read-out: AUC(0–T), GM (%CV)): 13400 ng·h/mL
- Tmax ([2]; 3 mg, multiple dose, steady state, Schedule A (5 days on, 2 days off), 3.0 mg, n = 8, read-out: Tmax, median (range)): 2.01 h
- Cmax ([2]; 3 mg, multiple dose, steady state, Schedule A (5 days on, 2 days off), n = 8): 624 ng/mL
- AUC(0-t) ([2]; 3 mg, multiple dose, steady state, Schedule B (14 days on, 7 days off), 3.0 mg, n = 1, read-out: AUC(0–24), GM (%CV)): 13300 ng·h/mL
- AUC(0-t) ([2]; 3 mg, multiple dose, steady state, Schedule B (14 days on, 7 days off), 3.0 mg, n = 1, read-out: AUC(0–T), GM (%CV)): 34000 ng·h/mL
- half-life ([2]; 3 mg, multiple dose, steady state, Schedule B (14 days on, 7 days off), 3.0 mg, n = 1, read-out: Effective T1/2, mean (SD) (converted)): 37.3 h
- Tmax ([2]; 3 mg, multiple dose, steady state, Schedule B (14 days on, 7 days off), 3.0 mg, n = 1, read-out: Tmax, median (range)): 1 h
- Cmax ([2]; 3 mg, multiple dose, steady state, Schedule B (14 days on, 7 days off), n = 1): 855 ng/mL
- half-life ([2]; 3 mg, multiple dose, steady state, Schedule C (7 days on, 14 days off), 3.0 mg, n = 7, read-out: Effective T1/2, mean (SD) (converted)): 27.3 h
- AUC(0-t) ([2]; 3 mg, multiple dose, steady state, Schedule C (7 days on, 14 days off), 3.0 mg, n = 8, read-out: AUC(0–24), GM (%CV)): 8640 ng·h/mL
- AUC(0-t) ([2]; 3 mg, multiple dose, steady state, Schedule C (7 days on, 14 days off), 3.0 mg, n = 8, read-out: AUC(0–T), GM (%CV)): 18300 ng·h/mL
- Tmax ([2]; 3 mg, multiple dose, steady state, Schedule C (7 days on, 14 days off), 3.0 mg, n = 8, read-out: Tmax, median (range)): 1.66 h
- Cmax ([2]; 3 mg, multiple dose, steady state, Schedule C (7 days on, 14 days off), n = 8): 588 ng/mL
- AUC(0-t) ([2]; 4.5 mg, multiple dose, steady state, Schedule A (5 days on, 2 days off), 4.5 mg, n = 8, read-out: AUC(0–24), GM (%CV)): 14600 ng·h/mL
- AUC(0-t) ([2]; 4.5 mg, multiple dose, steady state, Schedule A (5 days on, 2 days off), 4.5 mg, n = 8, read-out: AUC(0–T), GM (%CV)): 29500 ng·h/mL
- half-life ([2]; 4.5 mg, multiple dose, steady state, Schedule A (5 days on, 2 days off), 4.5 mg, n = 8, read-out: Effective T1/2, mean (SD) (converted)): 27.3 h
- Tmax ([2]; 4.5 mg, multiple dose, steady state, Schedule A (5 days on, 2 days off), 4.5 mg, n = 8, read-out: Tmax, median (range)): 2 h
- Cmax ([2]; 4.5 mg, multiple dose, steady state, Schedule A (5 days on, 2 days off), n = 8): 898 ng/mL
- half-life ([2]; 4.5 mg, multiple dose, steady state, Schedule C (7 days on, 14 days off), 4.5 mg, n = 5, read-out: Effective T1/2, mean (SD) (converted)): 27.6 h
- AUC(0-t) ([2]; 4.5 mg, multiple dose, steady state, Schedule C (7 days on, 14 days off), 4.5 mg, n = 7, read-out: AUC(0–24), GM (%CV)): 11300 ng·h/mL
- AUC(0-t) ([2]; 4.5 mg, multiple dose, steady state, Schedule C (7 days on, 14 days off), 4.5 mg, n = 7, read-out: AUC(0–T), GM (%CV)): 20000 ng·h/mL
- Tmax ([2]; 4.5 mg, multiple dose, steady state, Schedule C (7 days on, 14 days off), 4.5 mg, n = 7, read-out: Tmax, median (range)): 2 h
- Cmax ([2]; 4.5 mg, multiple dose, steady state, Schedule C (7 days on, 14 days off), n = 7): 901 ng/mL
- half-life ([2]; multiple dose, Schedule A, read-out: Mean effective T1/2, range): 25.7 to 36 h
- half-life ([2]; multiple dose, Schedule B, read-out: Mean effective T1/2, range): 14.4 to 37.3 h
- half-life ([2]; multiple dose, Schedule C, read-out: Mean effective T1/2, range): 27.3 to 31.6 h
- AUC(0-t) ([2]; multiple doses, Schedule A, 0.75–4.5-mg doses, read-out: Geometric mean AUC(0–T), range): 3450 to 29500 ng·h/mL
- AUC(0-t) ([2]; multiple doses, Schedule A, read-out: AUC(0–24), range): 2720 to 14600 ng·h/mL
- AUC(0-t) ([2]; multiple doses, Schedule B, 2.0–3.0-mg dose groups, read-out: Geometric mean AUC(0–T), range): 6320 to 34000 ng·h/mL
- AUC(0-t) ([2]; multiple doses, Schedule B, read-out: AUC(0–24), range): 3430 to 13300 ng·h/mL
- AUC(0-t) ([2]; multiple doses, Schedule C, 2.0–4.5 mg, read-out: Geometric mean AUC(0–T), range): 18300 to 20000 ng·h/mL
- AUC(0-t) ([2]; multiple doses, Schedule C, read-out: AUC(0–24), range): 8560 to 11300 ng·h/mL
- Tmax ([2]; multiple-dose administration, read-out: Tmax, range across all doses and schedules): 1 to 3.14 h
- Dose proportionality of PK profile ([2]; multiple-dose administration, Schedule A): approximately dose proportional; also recorded: dose-proportional PK profile
- Dose proportionality of PK profile ([2]; multiple-dose administration, Schedule C): less than dose proportional
